# Laboratory results published in the supplement of paper PMC10307832.
# How the values were obtained:
# Test in all cases: relative viability (nuclei count vs DMSO), 5 days (fraction); higher = more cells survive
# [1] = system: LOU-NH91
# Outline: (§1)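 Each reported value is a median over duplicate plates. It expresses relative viability: treated-well nuclei count divided by vehicle-well nuclei count. Lung cancer cell lines in 1536-well plates were dosed by pin tool a day after seeding, alone with one drug or with a fixed anchor-drug dose plus five library-drug doses (not always all listed) in √10 steps, and nuclei were counted after 5 days.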
# [2] = system: A-427
# Outline: as §1
# [3] = system: H3255
# Outline: as §1
# [4] = system: NCI-H2170
# Outline: as §1
# [5] = system: ChaGo-K-1
# Outline: as §1
# [6] = system: PC-3 [JPC-3]
# Outline: as §1
# [7] = system: NCI-H1755
# Outline: as §1
# [8] = system: LK-2
# Outline: as §1
# [9] = system: HCC-366
# Outline: as §1
# [10] = system: NCI-H1944
# Outline: as §1
# [11] = system: SK-MES-1
# Outline: as §1
# [12] = system: NCI-H596
# Outline: as §1
# [13] = system: EKVX
# Outline: as §1
# [14] = system: NCI-H1734
# Outline: as §1
# [15] = system: NCI-H1792
# Outline: as §1
# [16] = system: EMC-BAC-2
# Outline: as §1
# [17] = system: NCI-H441
# Outline: as §1
# [18] = system: NCI-H23
# Outline: as §1
# [19] = system: COR-L 105
# Outline: as §1
# [20] = system: NCI-H1975
# Outline: as §1
# [21] = system: NCI-H1666
# Outline: as §1
# [22] = system: NCI-H520
# Outline: as §1
compound,measurement,setting,value
C[C@@H]1CN(CC(=O)Nc2ccc3c(c2)Cc2cccc(-c4cc(=O)cc(N5CCOCC5)o4)c2S3)C[C@H](C)O1 + CC1(C)CCC(c2ccc(Cl)cc2)=C(CN2CCN(c3ccc(C(=O)NS(=O)(=O)c4ccc(N[C@H](CCN5CCOCC5)CSc5ccccc5)c(S(=O)(=O)C(F)(F)F)c4)cc3)CC2)C1 [Navitoclax] (partner 0.5 µM),relative viability,[1]; first compound 0.04 µM,0.701
same,relative viability,[1]; first compound 0.1265 µM,0.617
same,relative viability,[1]; first compound 0.4 µM,0.702
same,relative viability,[1]; first compound 4 µM,0.66
same,relative viability,[2]; first compound 0.04 µM,0.988
same,relative viability,[2]; first compound 0.1265 µM,0.982
same,relative viability,[2]; first compound 0.4 µM,0.983
same,relative viability,[2]; first compound 4 µM,0.967
same,relative viability,[3]; first compound 0.04 µM,0.475
same,relative viability,[3]; first compound 0.1265 µM,0.411
same,relative viability,[3]; first compound 0.4 µM,0.463
same,relative viability,[3]; first compound 4 µM,0.518
same,relative viability,[4]; first compound 0.1265 µM,0.617
same,relative viability,[4]; first compound 0.4 µM,0.471
same,relative viability,[4]; first compound 4 µM,0.475
same,relative viability,[5]; first compound 0.1265 µM,0.933
same,relative viability,[5]; first compound 0.4 µM,0.956
same,relative viability,[5]; first compound 4 µM,0.936
same,relative viability,[6]; first compound 0.04 µM,0.875
same,relative viability,[6]; first compound 0.1265 µM,0.795
same,relative viability,[6]; first compound 0.4 µM,0.836
same,relative viability,[6]; first compound 4 µM,0.835
same,relative viability,[7]; first compound 0.04 µM,1.02
same,relative viability,[7]; first compound 0.1265 µM,0.945
same,relative viability,[7]; first compound 0.4 µM,0.924
same,relative viability,[7]; first compound 4 µM,0.92
same,relative viability,[8]; first compound 0.1265 µM,0.83
same,relative viability,[8]; first compound 0.4 µM,0.831
same,relative viability,[8]; first compound 4 µM,1.02
same,relative viability,[9]; first compound 0.04 µM,1.04
same,relative viability,[9]; first compound 0.1265 µM,1.08
same,relative viability,[9]; first compound 0.4 µM,1.15
same,relative viability,[9]; first compound 4 µM,0.944
same,relative viability,[10]; first compound 0.1265 µM,1.02
same,relative viability,[10]; first compound 0.4 µM,1.11
same,relative viability,[10]; first compound 4 µM,1.06
same,relative viability,[11]; first compound 0.04 µM,1.37
same,relative viability,[11]; first compound 0.1265 µM,1.16
same,relative viability,[11]; first compound 0.4 µM,1.1
same,relative viability,[11]; first compound 4 µM,1.1
same,relative viability,[12]; first compound 0.04 µM,0.958
same,relative viability,[12]; first compound 0.1265 µM,0.994
same,relative viability,[12]; first compound 0.4 µM,0.934
same,relative viability,[12]; first compound 4 µM,0.992
same,relative viability,[13]; first compound 0.04 µM,0.899
same,relative viability,[13]; first compound 0.1265 µM,0.894
same,relative viability,[13]; first compound 0.4 µM,0.862
same,relative viability,[13]; first compound 4 µM,0.812
same,relative viability,[14]; first compound 0.04 µM,0.783
same,relative viability,[14]; first compound 0.1265 µM,0.886
same,relative viability,[14]; first compound 0.4 µM,0.808
same,relative viability,[14]; first compound 4 µM,0.923
same,relative viability,[15]; first compound 0.04 µM,0.593
same,relative viability,[15]; first compound 0.1265 µM,0.597
same,relative viability,[15]; first compound 0.4 µM,0.632
same,relative viability,[15]; first compound 4 µM,0.597
same,relative viability,[16]; first compound 0.04 µM,1.16
same,relative viability,[16]; first compound 0.1265 µM,1.12
same,relative viability,[16]; first compound 0.4 µM,1.17
same,relative viability,[16]; first compound 4 µM,1.09
same,relative viability,[17]; first compound 0.04 µM,0.427
same,relative viability,[17]; first compound 0.4 µM,0.576
same,relative viability,[17]; first compound 4 µM,0.318
same,relative viability,[18]; first compound 0.04 µM,1
same,relative viability,[18]; first compound 0.1265 µM,1.03
same,relative viability,[18]; first compound 0.4 µM,0.708
same,relative viability,[18]; first compound 4 µM,0.668
same,relative viability,[19]; first compound 0.04 µM,1.01
same,relative viability,[19]; first compound 0.1265 µM,0.801
same,relative viability,[19]; first compound 0.4 µM,0.728
same,relative viability,[19]; first compound 4 µM,0.686
same,relative viability,[20]; first compound 0.04 µM,1.33
same,relative viability,[20]; first compound 0.1265 µM,1.06
same,relative viability,[20]; first compound 0.4 µM,1.02
same,relative viability,[20]; first compound 4 µM,0.846
same,relative viability,[21]; first compound 0.04 µM,1.14
same,relative viability,[21]; first compound 0.1265 µM,1.12
same,relative viability,[21]; first compound 0.4 µM,0.862
same,relative viability,[21]; first compound 4 µM,0.781
same,relative viability,[22]; first compound 0.04 µM,1.2
same,relative viability,[22]; first compound 0.1265 µM,1.03
same,relative viability,[22]; first compound 0.4 µM,0.888
same,relative viability,[22]; first compound 4 µM,1.08
CC(C)Oc1cc(Nc2nc(N[C@@H](C)c3ccc(F)cn3)ncc2Cl)n[nH]1 [AZ23] + CC1(C)CCC(c2ccc(Cl)cc2)=C(CN2CCN(c3ccc(C(=O)NS(=O)(=O)c4ccc(N[C@H](CCN5CCOCC5)CSc5ccccc5)c(S(=O)(=O)C(F)(F)F)c4)cc3)CC2)C1 [Navitoclax] (partner 0.5 µM),relative viability,[1]; first compound 0.01 µM,0.619
same,relative viability,[1]; first compound 0.03162 µM,0.744
same,relative viability,[1]; first compound 0.3162 µM,0.746
same,relative viability,[2]; first compound 0.01 µM,0.941
same,relative viability,[2]; first compound 0.03162 µM,1.06
same,relative viability,[2]; first compound 0.3162 µM,0.864
same,relative viability,[3]; first compound 0.01 µM,0.514
same,relative viability,[3]; first compound 0.03162 µM,0.677
same,relative viability,[3]; first compound 0.3162 µM,0.556
same,relative viability,[4]; first compound 0.01 µM,0.59
same,relative viability,[4]; first compound 0.03162 µM,0.687
same,relative viability,[4]; first compound 0.3162 µM,0.589
same,relative viability,[5]; first compound 0.01 µM,0.782
same,relative viability,[5]; first compound 0.03162 µM,1.23
same,relative viability,[5]; first compound 0.3162 µM,0.949
same,relative viability,[6]; first compound 0.01 µM,0.881
same,relative viability,[6]; first compound 0.03162 µM,0.863
same,relative viability,[6]; first compound 0.3162 µM,0.762
same,relative viability,[7]; first compound 0.01 µM,1.17
same,relative viability,[7]; first compound 0.03162 µM,1.11
same,relative viability,[7]; first compound 0.3162 µM,1.03
same,relative viability,[8]; first compound 0.01 µM,0.653
same,relative viability,[8]; first compound 0.03162 µM,0.915
same,relative viability,[8]; first compound 0.3162 µM,0.909
same,relative viability,[9]; first compound 0.01 µM,1.3
same,relative viability,[9]; first compound 0.03162 µM,0.998
same,relative viability,[9]; first compound 0.3162 µM,0.883
same,relative viability,[10]; first compound 0.01 µM,0.985
same,relative viability,[10]; first compound 0.03162 µM,1.07
same,relative viability,[10]; first compound 0.3162 µM,1.01
same,relative viability,[11]; first compound 0.01 µM,1.4
same,relative viability,[11]; first compound 0.03162 µM,1.42
same,relative viability,[11]; first compound 0.3162 µM,1.33
same,relative viability,[12]; first compound 0.01 µM,0.854
same,relative viability,[12]; first compound 0.03162 µM,1.04
same,relative viability,[12]; first compound 0.3162 µM,0.747
same,relative viability,[13]; first compound 0.01 µM,1.12
same,relative viability,[13]; first compound 0.03162 µM,1.29
same,relative viability,[13]; first compound 0.3162 µM,1.02
same,relative viability,[14]; first compound 0.01 µM,0.905
same,relative viability,[14]; first compound 0.03162 µM,0.973
same,relative viability,[14]; first compound 0.3162 µM,0.721
same,relative viability,[15]; first compound 0.01 µM,0.763
same,relative viability,[15]; first compound 0.03162 µM,0.858
same,relative viability,[15]; first compound 0.3162 µM,0.693
same,relative viability,[16]; first compound 0.01 µM,1.59
same,relative viability,[16]; first compound 0.03162 µM,1.25
same,relative viability,[16]; first compound 0.3162 µM,1.19
same,relative viability,[17]; first compound 0.01 µM,0.518
same,relative viability,[17]; first compound 0.03162 µM,0.755
same,relative viability,[17]; first compound 0.3162 µM,0.769
same,relative viability,[18]; first compound 0.03162 µM,0.981
same,relative viability,[18]; first compound 0.3162 µM,0.69
same,relative viability,[19]; first compound 0.01 µM,0.543
same,relative viability,[19]; first compound 0.03162 µM,0.869
same,relative viability,[19]; first compound 0.3162 µM,0.736
same,relative viability,[20]; first compound 0.01 µM,1.24
same,relative viability,[20]; first compound 0.03162 µM,1.41
same,relative viability,[20]; first compound 0.3162 µM,1.2
same,relative viability,[21]; first compound 0.01 µM,0.79
same,relative viability,[21]; first compound 0.03162 µM,0.827
same,relative viability,[21]; first compound 0.3162 µM,1
same,relative viability,[22]; first compound 0.01 µM,0.972
same,relative viability,[22]; first compound 0.03162 µM,1.31
same,relative viability,[22]; first compound 0.3162 µM,1.08
